This test has as its target T1, GltPh-G396S/R397C (Pyrococcus horikoshii, UniProt O59010, G396S/R397C).
T1 construct: hexa-His (N, cleaved yes); made in house; host or cells: Escherichia coli Top10 (pBAD)
The experiment in a line: biochemical. The test is classed as biochemical. Here is the method: Mutant and wild-type GltPh with an amino-terminal hexa-His tag were expressed in Escherichia coli Top10 cells (Invitrogen), which were grown in Luria broth medium at 37 °C. Ampicillin was added to a final concentration of 100 μg per ml. To induce expression of GltPh, 0.1% L-arabinose was added when cells reached an optical density of 0.6 at 660 nm, and cells were harvested 4 h post induction. Membranes were isolated, and then solubilised with n-dodecyl-β-D-maltopyranoside (C12M, Anatrace). Histidine containing proteins were purified using Ni^2+−nitrilotriacetic acid resin (Qiagen). The histidine tag was subsequently removed from GltPh by digestion with thrombin (10 U per mg protein) and the protein further purified on a Superdex 200 size exclusion column, where the detergent was exchanged to n-decyl-β-D-maltopyranoside (C10M, Anatrace).
Pure protein was reconstituted into liposomes composed of 75% E. coli Polar Lipid Extract and 25% 1-palmitoyl-2-oleoyl-sn-glycero-3 ^−phopshocholine (Avanti Polar Lipids). Lipids were mixed, dried under nitrogen and resuspended in internal buffer (100 mM KCl, 20 mM HEPES-Tris pH 7.5) using brief sonication (Laboratory Supplies Co.). The lipid suspension was frozen in liquid nitrogen and thawed at room temperature several times. Liposomes were formed by extrusion through 400 nm polycarbonate membranes (Avanti Polar Lipids) and were treated with Triton X-100 at a 0.5:1 (w/w) detergent to lipid ratio prior to the addition of protein at 0.25 μg protein per mg lipid. The protein/lipid mixture was left at room temperature for 30 min before detergent was removed using SM2 Biobeads (BioRad). The mixture was then incubated with gentle agitation, with four consecutive batches of Biobeads (80 mg per ml). Proteoliposomes were concentrated by centrifugation at 150,000 g for 30 min, resuspended at 100 mg lipid per ml and either used immediately or flash-frozen in liquid nitrogen and stored at −80 °C.
Mutant and wild-type GltPh-mediated transport of radiolabelled substrate was assayed by diluting proteoliposomes (100 mg lipid per ml) 133-fold into uptake buffer (100 mM NaCl, 20 mM HEPES-Tris pH 7.5, 1 μM valinomycin, 100 nM–1 µM L-[^3H]substrate) pre-warmed to 30 °C. At each time point, a 200 µl aliquot was removed and diluted 10-fold into ice-cold quench buffer (100 mM LiCl, 20 mM HEPES-Tris pH 7.5), followed by immediate filtration over nitrocellulose filters (0.22 μm pore size, Millipore). The filters were washed with ice-cold quench buffer and assayed for radioactivity using a Trilux beta counter (PerkinElmer). To establish substrate concentration–response curves, extraliposomal L-[^3H]substrate was varied between 500 nM and 100 µM, maintaining NaCl concentrations at 300 mM. For inhibitor concentration–response curves, for wild-type GltPh 100 nM L-[^3H]aspartate, and for mutant GltPh 1 µM L-[^3H]serine, was co-applied with varying inhibitor concentrations. Background levels of uptake were measured by diluting proteoliposomes into internal buffer (100 mM KCl, 20 mM HEPES-Tris pH 7.5) containing 1 µM of valinomycin and the indicated concentrations of L-[^3H]substrate.

T1 sequence (O59010 whole entry G396S/R397C): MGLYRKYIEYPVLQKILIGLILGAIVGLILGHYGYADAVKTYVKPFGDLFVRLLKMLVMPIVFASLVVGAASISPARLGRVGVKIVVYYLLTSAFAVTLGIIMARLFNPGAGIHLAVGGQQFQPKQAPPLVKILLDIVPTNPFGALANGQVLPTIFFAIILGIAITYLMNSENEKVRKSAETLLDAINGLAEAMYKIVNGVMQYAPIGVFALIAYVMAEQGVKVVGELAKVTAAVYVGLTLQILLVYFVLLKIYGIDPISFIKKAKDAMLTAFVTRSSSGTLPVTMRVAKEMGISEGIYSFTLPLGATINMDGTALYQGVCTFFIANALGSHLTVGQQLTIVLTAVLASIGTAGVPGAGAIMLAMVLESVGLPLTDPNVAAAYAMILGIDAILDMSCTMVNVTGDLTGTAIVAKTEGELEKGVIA

`N[C@@H](CCC(=O)Nc1ccc([N+](=O)[O-])cc1)C(=O)O` [GPNA, glutamyl-p-nitroanilide]: for the setting “GltPh-G396S/R397C, 1 µM L-[3H]serine”, the “IC50 for inhibition of L-[3H]serine transport” value is “poor inhibitor”. As to `N[C@@H](CS)C(=O)O` [L-cysteine], under “GltPh-R397C/G396S, 10 µM L-[3H]serine, 100-fold excess unlabelled amino acid”, the “Reduction of L-[3H]serine transport by unlabelled competitor (in words)” value is reported as “to a similar extent”. With `NC(=O)CC[C@H](N)C(=O)O` [L-glutamine], for the setting “GltPh-G396S/R397C, 100 nM L-[3H]aspartate, 1 µM L-[3H]glutamine, Na+ gradient, pH 7.5”, the “Transport of radiolabelled substrate into proteoliposomes (in words)” value is reported as “does not effectively transport”.

In turn, `N[C@@H](CO)C(=O)O` [L-serine] registered an EC50 of 15 ± 2 µM.

Broadly, the EC50 is the midpoint of the concentration-response curve.

The values are drawn from article PMC5750217 (Nature Communications, 2018).
